Entries after “also recorded” stand apart in the source; their conditions may differ.
Assays:
Format in all cases: cell-based, human
[1] = system: CaSki cells; assay: DNA solubilization assay (apoptosis)
Method: Twenty-four hours before the end of the experiment, cells were labeled with [^3H]thymidine (specific activity, 93 Ci/mmol; 5 μCi/1×10^6 cells) for 16 h. The medium was removed, and cells were washed three times with fresh medium lacking [^3H]thymidine and were incubated in the same medium for an additional 6 h. At the end of incubation, the supernatant was stored, and cells were lysed in 0.5 ml lysis buffer (10 mM Tris-HCl, pH 7.5; plus 1 mM EDTA-0.2% Triton X-100) for 1 h at 4° C. The intact chromatin was separated from the fragmented DNA by 5 min centrifugation at 4° C. in Eppendorf microcentrifuge at 12,000×g. The supernatant (lysate) was stored, while the pellet was resuspended in 0.5 ml of 1% sodium dodecyl sulfate (SDS). The radioactivity contained in the supernatants, lysates; and pellets was counted in a scintillation counter, and DNA fragmentation was calculated as: [% Solubilized DNA]=([cpm supernatant+cpm lysates]/[cpm supernatant+cpm lysate+cpm pellet])×100.

[2] = system: CaSki cells; assay: Number of CaSki cells in culture; details: serum-free; 0.2 nM EGF, 2 nM epinephrine, or both, 24 h
Method: Near-confluent cultures of CaSki cells on filters were shifted for 14 hours to serum-free medium supplemented with 1% BSA and were treated in the same medium with 0.2 nM EGF, 2 nM epinephrine, or both for an additional 24 h. At the completion of treatments, cells were harvested off the filters and counted.

[3] = system: CaSki cells; assay: DNA synthesis by [3H]thymidine incorporation; details: 0.2 nM EGF, 2 nM epinephrine
Method: The experiments used CaSki cells, a line of transformed cervical epithelial cells that were obtained from the ATCC (Manassas, Va.) and were previously characterized as stably expressing phenotypic characteristics of human cervical epithelial cells. Cells were grown and subcultured in RPMI-1640 supplemented with 8% fetal calf serum, 0.2% NaHCO3, nonessential amino acids (0.1 mM), L-glutamine (2 mM), penicillin (100 U/ml), streptomycin (100 μg/ml), and gentamycin ([…]) at 37° C. in a […] humidified incubator. Cultures were routinely tested for mycoplasma. Preliminary experiments were conducted on cells plated on culture plates, and definitive experiments were repeated on cells plated on filters. Filters were either Anocell (Anocell-10, Oxon, UK, obtained through Sigma Chemicals, St. Louis, Mo.), Transwell (Costar Corporation, Cambridge, Mass.), or Millicell-CM (Millipore, Bedford, Mass.). Filters were coated on their upper (luminal) surface with 3-5 μg/cm collagen type IV and incubated at 37° C. overnight. […] DNA synthesis DNA synthesis was measured by [^3H]thymidine incorporation. […] The radioactivity [dpm/mg protein, determined by Bio-Rad (Hercules, Calif.) Protein Assay solution] of triplicated samples was determined by scintillation counting (LS1801 scintillation counter; Beckman, Fullerton, Calif.).

EGF: Human recombinant EGF, epidermal growth factor
effect on TNFα-induced increase in DNA solubilization ([1]; pretreatment 24 h: 1 μM zinterol or 0.2 nM EGF): no significant effect | effect on BzATP-induced apoptosis (DNA solubilization) ([1]; pretreatment: EGF 0.2 nM, zinterol/terbutaline 1 μM 24 h, forskolin 10 μM 14 h with IBMX, isoproterenol 10 μM, phenylephrine 100 μM): little effect; also recorded: no significant effect | number of cells in culture [2]: increased the number of cells in culture | [3H]thymidine incorporation [3]: increased [^3H]thymidine incorporation
